Results published in ChEMBL document CHEMBL2407031, “Structure-activity relationship study of phenylpyrazole derivatives as a novel class of anti-HIV agents” (Bioorg Med Chem Lett, 2013).

Key:
[1] = test system: Human immunodeficiency virus 1; test: Antiviral activity against HIV-1 infected in human NCK45 cells assessed as inhibition of infection after 48 hrs by dual-reporter gene assay; format: functional, organism-based; conditions: Human immunodeficiency virus 1, NCK45, 48 h
[2] = Cytotoxicity against human NCK45 cells at 1 uM; format: cell-based; conditions: nck45, 1 µM
[3] = Cytotoxicity against human NCK45 cells at 10 uM; format: cell-based; conditions: nck45, 10 µM

SMILES	EC50 [1] [nM]	Activity [2]	Activity [3]
CCC(=O)Nc1cc(CNc2c(C#N)c(C)nn2-c2ccc3ncccc3c2)cc(Cl)c1O	> 10000	–	–
CCC(=O)Nc1cc(CNc2c(C#N)c(C)nn2-c2cccc(-c3ccccc3OC)c2)cc(Cl)c1O	> 100	Toxic	–
CCC(=O)Nc1cc(CNc2c(C#N)c(C)nn2-c2cccc(-c3ccccc3C)c2)cc(Cl)c1O	> 100	Toxic	–
CCC(=O)Nc1cc(CNc2c(C#N)c(C)nn2-c2cccc(-c3ccccc3Cl)c2)cc(Cl)c1O	250	–	Toxic
CCC(=O)Nc1cc(CNc2c(C#N)c(C)nn2-c2cccc(-c3cccc(OC)c3)c2)cc(Cl)c1O	> 100	Toxic	–
CCC(=O)Nc1cc(CNc2c(C#N)c(C)nn2-c2cccc(-c3cccc(C)c3)c2)cc(Cl)c1O	58	Toxic	–
CCC(=O)Nc1cc(CNc2c(C#N)c(C)nn2-c2cccc(-c3cccc(Cl)c3)c2)cc(Cl)c1O	> 100	Toxic	–
CCC(=O)Nc1cc(CNc2c(C#N)c(C)nn2-c2cccc(-c3ccc(OC)cc3)c2)cc(Cl)c1O	> 100	Toxic	–
CCC(=O)Nc1cc(CNc2c(C#N)c(C)nn2-c2cccc(-c3ccc(C)cc3)c2)cc(Cl)c1O	97	Toxic	–
CCC(=O)Nc1cc(CNc2c(C#N)c(C)nn2-c2cccc(-c3ccc(Cl)cc3)c2)cc(Cl)c1O	> 100	Toxic	–
CCC(=O)Nc1cc(CNc2c(C#N)c(C)nn2-c2cccc(-c3ccc(Cl)c(Cl)c3)c2)cc(Cl)c1O	47	Toxic	–
CCC(=O)Nc1cc(CNc2c(C#N)c(C)nn2-c2cccc(-c3ccc4ccccc4c3)c2)cc(Cl)c1O	> 100	Toxic	–
CCC(=O)Nc1cc(CNc2c(C#N)c(C)nn2-c2cccc(-c3ccncc3)c2)cc(Cl)c1O	> 1000	–	Toxic
CCC(=O)Nc1cc(CNc2c(C#N)c(C)nn2-c2cccc(-c3cnc4ccccc4c3)c2)cc(Cl)c1O	> 100	Toxic	–
CCC(=O)Nc1cc(CNc2c(C#N)c(C)nn2-c2cccc(C(F)(F)F)c2)cc(Cl)c1O	> 100	Toxic	–
CCC(=O)Nc1cc(CNc2c(C#N)c(C)nn2-c2cccc([N+](=O)[O-])c2)cc(Cl)c1O	> 1000	–	Toxic
CCC(=O)Nc1cc(CNc2c(C#N)c(C)nn2-c2cccc(-c3ccccc3)c2)cc(Cl)c1O	130	Toxic	–
CCC(=O)Nc1cc(CNc2c(C#N)c(C)nn2-c2cccc(NC(C)=O)c2)cc(Cl)c1O	> 10000	–	–
CCC(=O)Nc1cc(CNc2c(C#N)c(C)nn2-c2ccc(C)cc2)cc(Cl)c1O	> 1000	–	Toxic
CCC(=O)Nc1cc(CNc2c(C#N)c(C)nn2-c2ccccc2C)cc(Cl)c1O	> 1000	–	Toxic
CCC(=O)Nc1cc(CNc2c(C#N)c(C)nn2-c2cc(Cl)cc(Cl)c2)cc(Cl)c1O	> 1000	–	Toxic
CCC(=O)Nc1cc(CNc2c(C#N)c(C)nn2-c2ccc3ccccc3c2)cc(Cl)c1O	> 1000	–	Toxic
CCC(=O)Nc1cc(CNc2c(C#N)c(C)nn2-c2cccc3ccccc23)cc(Cl)c1O	> 1000	–	Toxic
CCC(=O)Nc1cc(CNc2c(C#N)c(C)nn2-c2ccccn2)cc(Cl)c1O	> 100	Toxic	–

SMILES	EC50 [1] [nM]	Activity [2]	Activity [3]
CCC(=O)Nc1cc(CNc2c(C#N)c(C)nn2-c2cccnc2)cc(Cl)c1O	> 10000	–	–
CCC(=O)Nc1cc(CNc2c(C#N)c(C)nn2-c2nccc3ccccc23)cc(Cl)c1O	> 1000	–	Toxic
CCC(=O)Nc1cc(CNc2c(C#N)c(C)nn2-c2ccccc2)cc(C)c1O	> 10000	–	–
CC(=O)Nc1cc(CNc2c(C#N)c(C)nn2-c2ccccc2)cc(Cl)c1O	> 1000	–	Toxic
CCCC(=O)Nc1cc(CNc2c(C#N)c(C)nn2-c2ccccc2)cc(Cl)c1O	3300	–	–
CCCCCC(=O)Nc1cc(CNc2c(C#N)c(C)nn2-c2ccccc2)cc(Cl)c1O	> 10000	–	–
CCNC(=O)c1cc(CNc2c(C#N)c(C)nn2-c2ccccc2)cc(Cl)c1O	> 1000	–	Toxic
CCC(=O)Nc1cc(CNc2c(C#N)cnn2-c2ccccc2)cc(Cl)c1O	> 1000	–	Toxic
CCC(=O)Nc1cc(CNc2cc(C)nn2-c2ccccc2)cc(Cl)c1O	> 10000	–	–
CCC(=O)Nc1cc(CNc2c(C#N)c(C)nn2C)cc(Cl)c1O	> 10000	–	–
CCC(=O)Nc1cc(CNc2c(C#N)c(C)nn2C2CCCCC2)cc(Cl)c1O	> 1000	–	Toxic
CCC(=O)Nc1cc(CNc2c(C#N)c(CC)nn2-c2ccccc2)cc(Cl)c1O	> 10000	–	–
CCC(=O)Nc1cc(CNc2c(C#N)c(-c3ccccc3)nn2-c2ccccc2)cc(Cl)c1O	> 10000	–	–
CCC(=O)Nc1cc(CNc2c(C(=O)OC)c(C)nn2-c2ccccc2)cc(Cl)c1O	> 1000	–	Toxic
CCC(=O)Nc1cc(CNc2c(C#N)c(C)nn2-c2cccc(OC)c2)cc(Cl)c1O	> 10000	–	–
CCC(=O)Nc1cc(CNc2c(C#N)c(C)nn2-c2cccc(C)c2)cc(Cl)c1O	370	–	Toxic
CCC(=O)Nc1cc(CNc2c(C#N)c(C)nn2-c2cccc(Br)c2)cc(Cl)c1O	> 100	Toxic	–
CCC(=O)Nc1cc(CNc2c(C#N)c(C)nn2-c2cccc(F)c2)cc(Cl)c1O	330	–	Toxic
CCC(=O)Nc1cc(/N=N/c2c(C#N)c(C)nn2-c2ccccc2)cc(Cl)c1O	320	–	–
CCC(=O)Nc1cc(/C=C/c2c(C#N)c(C)nn2-c2ccccc2)cc(Cl)c1O	440	–	–
CCC(=O)Nc1cc(CNc2c(C#N)c(C)nn2-c2ccccc2)cc(Cl)c1O	360	–	–
CCC(=O)Nc1cc(Cl)cc(CNc2c(C#N)c(C)nn2-c2ccccc2)c1	> 10000	–	–
CCC(=O)Nc1cc(CNc2c(C#N)c(C)nn2-c2ccccc2)cc(Cl)c1OC	> 10000	–	–
CCC(=O)Nc1cc(CNc2c(C#N)c(C)nn2-c2ccccc2)ccc1O	> 10000	–	–
